Experiments:
alpha5beta1 = alpha5beta1 (Homo sapiens (Human), UniProt P05556+P08648); experiment: Cell adhesion assay, alpha5beta1-mediated (colon carcinoma cell line SW480 adhering to fibronectin); assay type: cell-based; conditions: SW480 cells
Experimental: The blockade of integrin alpha 5 beta 1 was tested in vitro with human cell lines as well as in vivo with a mouse model of airway hyperresponsiveness.

alphavbeta1 = alphavbeta1 (Homo sapiens, UniProt G3HZ55+P06756); experiment: Cell adhesion assay, alphavbeta1-mediated (CHO cells transfected with human alphav adhering to the latency associated peptide of TGF-beta); assay type: cell-based; conditions: adhesion to LAP of TGF-beta
Experimental: The blockade of integrin alpha 5 beta 1 provides a novel target for the treatment of asthma. […] The intracellular actin-myosin cross-bridging pathway serves as a useful target. Modulating the interactions of the cell and the extracellular matrix impairs the ability of the smooth muscle to transmit tension effectively. The blockade of integrin alpha 5 beta 1 was tested in vitro with human cell lines as well as in vivo with a mouse model of airway hyperresponsiveness. Novel compounds as described herein, and identified in Table 1, have been synthesized and tested in vitro for their ability to inhibit cell adhesion mediated by either alpha5beta1 (adhesion of the colon carcinoma cell line SW480 to fibronectin, a response that is entirely dependent on binding of alpha5beta1 to fibronectin), or alphavbeta1 (adhesion of Chinese Hamster Ovary cells transfected with human alphav to the latency associated peptide of transforming growth factor beta, a response that is entirely dependent on binding of alphavbeta1 to LAP).

Sequence of alphavbeta1 (G3HZ55 21-798 limits assumed): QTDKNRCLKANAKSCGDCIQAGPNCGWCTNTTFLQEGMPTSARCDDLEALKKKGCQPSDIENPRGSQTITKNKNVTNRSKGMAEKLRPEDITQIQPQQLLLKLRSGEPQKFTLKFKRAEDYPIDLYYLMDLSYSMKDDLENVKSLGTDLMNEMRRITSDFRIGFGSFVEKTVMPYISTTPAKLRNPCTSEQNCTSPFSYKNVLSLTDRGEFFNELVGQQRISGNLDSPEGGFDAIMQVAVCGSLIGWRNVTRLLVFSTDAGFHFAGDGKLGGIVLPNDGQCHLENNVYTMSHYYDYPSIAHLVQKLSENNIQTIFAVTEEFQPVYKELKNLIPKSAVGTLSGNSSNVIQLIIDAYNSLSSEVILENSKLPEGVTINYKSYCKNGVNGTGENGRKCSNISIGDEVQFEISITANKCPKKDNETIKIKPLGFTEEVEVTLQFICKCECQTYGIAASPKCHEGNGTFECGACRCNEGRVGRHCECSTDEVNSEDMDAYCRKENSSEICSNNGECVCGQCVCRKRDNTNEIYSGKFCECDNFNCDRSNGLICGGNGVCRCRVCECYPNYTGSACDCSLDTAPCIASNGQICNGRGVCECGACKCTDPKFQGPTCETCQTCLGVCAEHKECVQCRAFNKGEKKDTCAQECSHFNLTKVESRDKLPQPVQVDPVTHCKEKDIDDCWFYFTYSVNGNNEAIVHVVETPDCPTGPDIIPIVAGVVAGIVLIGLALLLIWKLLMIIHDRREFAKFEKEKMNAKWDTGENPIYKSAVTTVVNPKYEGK
Sequence of alphavbeta1 (P06756 31-889 limits assumed): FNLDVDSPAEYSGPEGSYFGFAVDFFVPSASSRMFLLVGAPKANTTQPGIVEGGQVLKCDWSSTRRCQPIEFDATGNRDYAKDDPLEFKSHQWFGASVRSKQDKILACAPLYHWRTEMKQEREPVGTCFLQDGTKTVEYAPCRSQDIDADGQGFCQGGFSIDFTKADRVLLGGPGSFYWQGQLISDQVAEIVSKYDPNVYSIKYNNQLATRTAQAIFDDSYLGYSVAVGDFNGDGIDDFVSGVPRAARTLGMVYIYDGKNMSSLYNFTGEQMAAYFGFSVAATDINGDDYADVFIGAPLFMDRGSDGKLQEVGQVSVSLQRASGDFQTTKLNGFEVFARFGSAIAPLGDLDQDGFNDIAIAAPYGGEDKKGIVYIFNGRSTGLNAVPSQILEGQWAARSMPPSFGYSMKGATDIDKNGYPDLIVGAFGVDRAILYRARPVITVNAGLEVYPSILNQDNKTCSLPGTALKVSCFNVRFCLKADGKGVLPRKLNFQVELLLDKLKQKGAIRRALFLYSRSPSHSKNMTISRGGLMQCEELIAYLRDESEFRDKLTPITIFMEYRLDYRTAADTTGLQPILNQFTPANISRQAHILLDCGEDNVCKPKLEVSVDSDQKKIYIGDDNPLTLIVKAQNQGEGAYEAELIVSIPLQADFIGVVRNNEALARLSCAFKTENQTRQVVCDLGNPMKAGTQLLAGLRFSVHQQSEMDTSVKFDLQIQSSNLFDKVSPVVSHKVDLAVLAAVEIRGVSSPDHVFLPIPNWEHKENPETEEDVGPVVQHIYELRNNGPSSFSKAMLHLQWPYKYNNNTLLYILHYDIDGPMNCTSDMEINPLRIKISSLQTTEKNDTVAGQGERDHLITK
Sequence of alphavbeta1 (P06756 891-1048 limits assumed): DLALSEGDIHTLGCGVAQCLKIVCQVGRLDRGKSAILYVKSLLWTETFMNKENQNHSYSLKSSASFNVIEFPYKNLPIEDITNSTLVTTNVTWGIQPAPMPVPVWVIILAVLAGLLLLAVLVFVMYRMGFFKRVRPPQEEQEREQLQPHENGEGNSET
Sequence of alpha5beta1 (P08648 42-894): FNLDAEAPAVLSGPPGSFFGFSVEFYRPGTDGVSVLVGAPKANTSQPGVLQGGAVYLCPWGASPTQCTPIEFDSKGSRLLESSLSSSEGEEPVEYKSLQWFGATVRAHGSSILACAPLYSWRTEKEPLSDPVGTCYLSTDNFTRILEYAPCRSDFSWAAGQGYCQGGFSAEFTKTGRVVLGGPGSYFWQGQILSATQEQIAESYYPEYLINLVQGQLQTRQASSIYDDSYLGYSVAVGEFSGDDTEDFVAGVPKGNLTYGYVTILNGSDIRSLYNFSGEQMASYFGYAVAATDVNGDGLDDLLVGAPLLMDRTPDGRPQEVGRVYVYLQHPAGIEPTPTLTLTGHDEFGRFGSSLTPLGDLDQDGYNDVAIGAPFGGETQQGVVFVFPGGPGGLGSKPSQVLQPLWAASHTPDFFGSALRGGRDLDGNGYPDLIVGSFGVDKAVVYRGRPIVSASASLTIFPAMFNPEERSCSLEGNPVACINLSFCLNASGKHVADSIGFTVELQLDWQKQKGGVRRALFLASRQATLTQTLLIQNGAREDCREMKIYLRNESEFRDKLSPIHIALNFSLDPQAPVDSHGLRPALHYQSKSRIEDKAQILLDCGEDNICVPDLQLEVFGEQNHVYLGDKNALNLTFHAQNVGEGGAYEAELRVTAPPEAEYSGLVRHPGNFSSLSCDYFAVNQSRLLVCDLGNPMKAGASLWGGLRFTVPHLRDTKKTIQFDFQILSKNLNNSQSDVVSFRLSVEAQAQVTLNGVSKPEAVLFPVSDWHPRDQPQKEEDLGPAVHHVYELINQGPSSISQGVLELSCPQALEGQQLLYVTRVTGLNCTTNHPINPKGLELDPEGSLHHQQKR
Sequence of alpha5beta1 (P08648 895-1049): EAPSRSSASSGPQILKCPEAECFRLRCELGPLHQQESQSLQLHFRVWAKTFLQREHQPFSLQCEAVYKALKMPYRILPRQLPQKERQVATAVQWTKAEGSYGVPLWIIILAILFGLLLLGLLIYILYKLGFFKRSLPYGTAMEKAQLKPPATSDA
Sequence of alpha5beta1 (P05556 21-798): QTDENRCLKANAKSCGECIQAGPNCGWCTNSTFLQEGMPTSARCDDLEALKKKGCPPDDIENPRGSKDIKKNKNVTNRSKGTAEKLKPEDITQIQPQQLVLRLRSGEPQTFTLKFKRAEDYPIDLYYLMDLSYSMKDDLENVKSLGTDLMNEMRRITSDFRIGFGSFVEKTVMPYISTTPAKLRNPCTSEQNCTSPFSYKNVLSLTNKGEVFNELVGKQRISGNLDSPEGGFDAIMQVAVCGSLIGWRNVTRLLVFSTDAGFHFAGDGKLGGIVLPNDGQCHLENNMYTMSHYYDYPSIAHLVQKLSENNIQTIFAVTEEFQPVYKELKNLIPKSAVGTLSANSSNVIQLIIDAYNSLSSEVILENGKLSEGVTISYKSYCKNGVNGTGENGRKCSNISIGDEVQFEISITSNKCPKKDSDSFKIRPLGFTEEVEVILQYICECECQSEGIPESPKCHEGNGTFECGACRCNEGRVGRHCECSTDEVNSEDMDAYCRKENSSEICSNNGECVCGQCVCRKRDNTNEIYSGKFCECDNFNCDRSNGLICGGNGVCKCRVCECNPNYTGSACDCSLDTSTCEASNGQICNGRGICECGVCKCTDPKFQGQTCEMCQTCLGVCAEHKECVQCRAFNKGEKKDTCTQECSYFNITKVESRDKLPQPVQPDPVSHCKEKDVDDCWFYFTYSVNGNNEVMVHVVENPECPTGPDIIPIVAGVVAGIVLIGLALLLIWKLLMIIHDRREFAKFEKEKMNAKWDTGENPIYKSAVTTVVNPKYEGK

SMILES	IC50 (alpha5beta1)	IC50 (alphavbeta1)
N=C(N)Nc1cc(NC(=O)CCCNC(=O)C23CC4CC(CC(C4)C2)C3)cc(C(=O)NCC(=O)NC[C@H](NC(=O)[C@@H]2CCCN2S(=O)(=O)c2ccccc2)C(=O)O)c1 [HIJ-1483, (2S)-3-(2-(3-(4-((1s,3s)-adamantane-1-carboxamido)butanamido)-5-guanidinobenzamido)acetamido)-2-((S)-1-(phenylsulfonyl)pyrrolidine-2-carboxamido)propanoic acid]	< 100 nM	–
N=C(N)NCCCCCNC(=O)NC[C@H](NC(=O)[C@@H]1CCCN1S(=O)(=O)c1ccccc1)C(=O)O [HIJ-1017, (S)-3-(3-(5-guanidinopentyl)ureido)-2-((S)-1-(phenylsulfonyl)pyrrolidine-2-carboxamido)propanoic acid]	100 to 10000 nM	< 100 nM
O=C(CNC(=O)c1cccc(Nc2ccccn2)c1)NC[C@H](NC(=O)[C@@H]1CCCN1S(=O)(=O)c1ccccc1)C(=O)O [HIJ-1093]	100 to 10000 nM	100 to 10000 nM
N=C(N)NCCCCCCNC(=O)NC[C@H](NC(=O)[C@@H]1CCCN1S(=O)(=O)c1ccccc1)C(=O)O [HIJ-1018, (S)-3-(3-(6-guanidinohexyl)ureido)-2-((S)-1-(phenylsulfonyl)pyrrolidine-2-carboxamido)propanoic acid]	100 to 10000 nM	< 100 nM
N=C(N)NCCCCC(=O)N[C@@H](CCCCNC(=S)Nc1ccc(C2c3ccc(O)cc3OC3=CC(=O)C=CC32)c(C(=O)O)c1)C(=O)NC[C@H](NC(=O)[C@@H]1CCCN1S(=O)(=O)c1ccccc1)C(=O)O (stereo partly drawn) [HIJ-1216, 5-(3-((S)-6-(((S)-2-carboxy-2-((S)-1-(phenylsulfonyl)pyrrolidine-2-carboxamido)ethyl)amino)-5-(5-guanidinopentanamido)-6-oxohexyl)thioureido)-2-(6-hydroxy-3-oxo-9,9a-dihydro-3H-xanthen-9-yl)benzoic acid]	> 10000 nM	> 10000 nM
N=C(N)Nc1cc(NC(=O)CCCN)cc(C(=O)NCC(=O)NC[C@H](NC(=O)[C@@H]2CCCN2S(=O)(=O)c2ccccc2)C(=O)O)c1 [HIJ-1437, (S)-3-(2-(3-(4-aminobutanamido)-5-guanidinobenzamido)acetamido)-2-((S)-1-(phenylsulfonyl)pyrrolidine-2-carboxamido)propanoic acid]	< 100 nM	–
N=C(N)NCCCCNC(=O)NC[C@H](NC(=O)[C@@H]1CCCN1S(=O)(=O)c1ccccc1)C(=O)O [HIJ-1016, (S)-3-(3-(4-guanidinobutyl)ureido)-2-((S)-1-(phenylsulfonyl)pyrrolidine-2-carboxamido)propanoic acid]	100 to 10000 nM	< 100 nM
N=C(N)NCCCCCC(=O)NC[C@H](NC(=O)[C@@H]1CCCN1S(=O)(=O)c1ccccc1)C(=O)O [HIJ-1083, (S)-3-(6-guanidinohexanamido)-2-((S)-1-(phenylsulfonyl)pyrrolidine-2-carboxamido)propanoic acid]	100 to 10000 nM	100 to 10000 nM
N=C(N)Nc1cccc(C(=O)NNC(=O)NC[C@H](NC(=O)[C@@H]2CCCN2S(=O)(=O)c2ccccc2)C(=O)O)c1 [HIJ-1099, (S)-3-(2-(3-guanidinobenzoyl)hydrazine-1-carboxamido)-2-((S)-1-(phenylsulfonyl)pyrrolidine-2-carboxamido)propanoic acid]	< 100 nM	100 to 10000 nM
N=C(N)Nc1cccc(C(=O)NCC(=O)NC[C@H](NC(=O)[C@@H]2CCCN2S(=O)(=O)c2ccccc2)C(=O)O)c1 [HIJ-1094, (S)-3-(2-(3-guanidinobenzamido)acetamido)-2-((S)-1-(phenylsulfonyl)pyrrolidine-2-carboxamido)propanoic acid]	< 100 nM	< 100 nM
